Experimental data from ChEMBL document CHEMBL5543084, “Development of cannabidiol derivatives as potent broad-spectrum antibacterial agents with membrane-disruptive mechanism” (Eur J Med Chem, 2024).
≈ marks a conversion by molar mass, not a printed value.

What was measured:
Staphylococcus aureus [1] = experiment: In vivo antibacterial activity against Staphylococcus aureus ATCC 29213 infected C57BL6 mouse corneal infection model assessed as reduction in bacterial burden at 50 mg/ml, TOP 4 times in a day for 3 consecutive days; format: functional; conditions: time 3 day
Pseudomonas aeruginosa [2] = experiment: In vivo antibacterial activity against Pseudomonas aeruginosa ATCC 9027 infected C57BL6 mouse corneal infection model assessed as reduction in bacterial burden at 3 mg/ml, TOP 4 times in a day for 2 consecutive days; format: functional; conditions: time 2 day
Staphylococcus aureus [3] = experiment: Drug resistance, ratio of MIC for Staphylococcus aureus NCTC 10442 after 21 passages to MIC for Staphylococcus aureus NCTC 10442 during first exposure; format: functional
[4] = Hemolytic activity against rabbit blood cells incubated for 1 hr relative to control; format: toxicity, cell-based, Oryctolagus cuniculus, Erythrocyte; conditions: rabbit blood cells (erythrocytes)
Escherichia coli [5] = experiment: Bactericidal activity against Escherichia coli ATCC 25922 assessed as bacterial reduction at 8 time of MIC concentration incubated for 2 hrs by time-kill assay; format: functional
Escherichia coli [6] = experiment: Antibacterial activity against Escherichia coli ATCC 25922 assessed as inhibition of bacterial growth incubated for 24 hrs by broth dilution method; format: functional
Acinetobacter baumannii [7] = experiment: Antibacterial activity against Acinetobacter baumannii R2889 assessed as inhibition of bacterial growth incubated for 24 hrs by broth dilution method; format: functional
Staphylococcus aureus [8] = experiment: Antibacterial activity against methicillin-resistant Staphylococcus aureus N315 assessed as inhibition of bacterial growth incubated for 24 hrs by broth dilution method; format: functional
Klebsiella pneumoniae [9] = experiment: Antibacterial activity against Klebsiella pneumoniae ATCC 10031 assessed as inhibition of bacterial growth incubated for 24 hrs by broth dilution method; format: functional
Staphylococcus aureus [10] = experiment: Antibacterial activity against methicillin-resistant Staphylococcus aureus NCTC 10442 assessed as inhibition of bacterial growth incubated for 24 hrs by broth dilution method; format: functional
Klebsiella pneumoniae [11] = experiment: Antibacterial activity against Klebsiella pneumoniae ATCC 14581 assessed as inhibition of bacterial growth incubated for 24 hrs by broth dilution method; format: functional
Acinetobacter baumannii [12] = experiment: Antibacterial activity against Acinetobacter baumannii ATCC 17978 assessed as inhibition of bacterial growth incubated for 24 hrs by broth dilution method; format: functional
Staphylococcus aureus [13] = experiment: Antibacterial activity against Staphylococcus aureus ATCC 29213 assessed as inhibition of bacterial growth incubated for 24 hrs by broth dilution method; format: functional
Pseudomonas aeruginosa [14] = experiment: Antibacterial activity against Pseudomonas aeruginosa ATCC 9027 assessed as inhibition of bacterial growth incubated for 24 hrs by broth dilution method; format: functional

SMILES	Activity (Staphylococcus aureus [1])	Activity (Pseudomonas aeruginosa [2])	Ratio (Staphylococcus aureus [3])	HC50 at 1 h [4]	Activity (Escherichia coli [5])	MIC (Escherichia coli [6])	MIC (Acinetobacter baumannii [7])	MIC (Staphylococcus aureus [8])	MIC (Klebsiella pneumoniae [9])	MIC (Staphylococcus aureus [10])	MIC (Klebsiella pneumoniae [11])	MIC (Acinetobacter baumannii [12])	MIC (Staphylococcus aureus [13])	MIC (Pseudomonas aeruginosa [14])
NC[C@H]1O[C@H](O[C@H]2[C@H](O)[C@@H](O[C@H]3O[C@H](CO)[C@@H](O)[C@H](N)[C@H]3O)[C@H](N)C[C@@H]2N)[C@H](N)C[C@@H]1O [TOBRAMYCIN]	5.21 log10FFU/ml	4.64 log10FFU/ml												
CC1(C)S[C@@H]2[C@H](NC(=O)[C@H](N)c3ccc(O)cc3)C(=O)N2[C@H]1C(=O)O [AMOXICILLIN]			8	> 200 µg/mL	2.9 log10FFU/ml	6.25 µg/mL (≈ 17.1 µM)								
C=C(C)[C@@H]1CCC(C)=C[C@H]1c1c(OCCCN)cc(CCCCC)cc1OCCCN				> 200 µg/mL		6.25 µg/mL (≈ 14.6 µM)	12.5 µg/mL (≈ 29.2 µM)	6.25 µg/mL (≈ 14.6 µM)	6.25 µg/mL (≈ 14.6 µM)	6.25 µg/mL (≈ 14.6 µM)	12.5 µg/mL (≈ 29.2 µM)	6.25 µg/mL (≈ 14.6 µM)	6.25 µg/mL (≈ 14.6 µM)	> 50 µg/mL
CCn1cc(C(=O)O)c(=O)c2cc(F)c(N3CCNCC3)cc21 [NORFLOXACIN]			128											
C=C(C)[C@@H]1CCC(C)=C[C@H]1c1c(OCC(=O)N[C@@H](CCCCN)C(=O)OC)cc(CCCCC)cc1OCC(=O)N[C@@H](CCCCN)C(=O)OC				116 µg/mL		50 µg/mL (≈ 69.9 µM)	50 µg/mL (≈ 69.9 µM)	25 µg/mL (≈ 35 µM)	50 µg/mL (≈ 69.9 µM)	25 µg/mL (≈ 35 µM)	> 50 µg/mL	50 µg/mL (≈ 69.9 µM)	25 µg/mL (≈ 35 µM)	> 50 µg/mL
C=C(C)[C@@H]1CCC(C)=C[C@H]1c1c(OCCCCN2CCSCC2)cc(CCCCC)cc1OCCCCN1CCSCC1				> 200 µg/mL		> 100 µg/mL	> 50 µg/mL	> 50 µg/mL	> 50 µg/mL	> 50 µg/mL	> 50 µg/mL	> 50 µg/mL	> 50 µg/mL	> 50 µg/mL
C=C(C)[C@@H]1CCC(C)=C[C@H]1c1c(OCCCCCBr)cc(CCCCC)cc1OCCCCCBr				> 200 µg/mL		> 50 µg/mL	> 50 µg/mL	> 50 µg/mL	> 50 µg/mL	> 50 µg/mL	> 50 µg/mL	> 50 µg/mL	> 50 µg/mL	> 50 µg/mL
C=C(C)[C@@H]1CCC(C)=C[C@H]1c1c(OCCCCCCNC(=N)N)cc(CCCCC)cc1OCCCCCCNC(=N)N				72.6 µg/mL		12.5 µg/mL (≈ 20.9 µM)	12.5 µg/mL (≈ 20.9 µM)	1.56 µg/mL (≈ 2.61 µM)	25 µg/mL (≈ 41.9 µM)	1.56 µg/mL (≈ 2.61 µM)	> 50 µg/mL	12.5 µg/mL (≈ 20.9 µM)	0.78 µg/mL (≈ 1.31 µM)	> 50 µg/mL
C=C(C)[C@@H]1CCC(C)=C[C@H]1c1c(OCCCCN)cc(CCCCC)cc1OCCCCN				141 µg/mL		3.12 µg/mL (≈ 6.84 µM)	3.12 µg/mL (≈ 6.84 µM)	3.12 µg/mL (≈ 6.84 µM)	6.25 µg/mL (≈ 13.7 µM)	3.12 µg/mL (≈ 6.84 µM)	12.5 µg/mL (≈ 27.4 µM)	3.12 µg/mL (≈ 6.84 µM)	3.12 µg/mL (≈ 6.84 µM)	50 µg/mL (≈ 109 µM)
